From patent publication US8258115B2, “Stable salts of S-adenosylmethionine and process for the preparation thereof” (priority 2007, dated 2012)

Key:
Type in all cases: physicochemical
[1] = Degradation of the active stereoisomer S,S at 40° C. and 75% R.H.
Method: (§1) In the following Tables 14-25, the percentage values are reported of the degradation of the active stereoisomer S,S calculated at 40° C. and 75% R.H. (Tables 14-19) and at 25° C. and 65% R.H.

[2] = Moisture % K.F. of the stability samples; conditions: sample used in the stability test
Method: In the following Tables 2-13, the percentage values are repotted which were obtained in the stability tests carried out on the products of examples 1-6. The stability tests were carried out in thermostated heaters at 40° C. and 75% R.H (tables 2-7) as well as 25° C. and 60% R.H. (tables 8-13), preserving the samples in heat-sealed aluminium/aluminium bags according to the following criteria: […]

[3] = Degradation of the active stereoisomer S,S at 25° C. and 65% R.H.
Method: as §1

[4] = Stability test in thermostated heaters at 40° C. and 75% R.H., active ingredient %; conditions: heat-sealed aluminium/aluminium bags
Method: (§2) In the following Tables 2-13, the percentage values are repotted which were obtained in the stability tests carried out on the products of examples 1-6. The stability tests were carried out in thermostated heaters at 40° C. and 75% R.H (tables 2-7) as well as 25° C. and 60% R.H. (tables 8-13), preserving the samples in heat-sealed aluminium/aluminium bags according to the following criteria: the active ingredient % was determined for every sampling point taken under consideration.

[5] = Stability test in thermostated heaters at 25° C. and 60% R.H., active ingredient %; conditions: heat-sealed aluminium/aluminium bags
Method: as §2

Row | SMILES | percentage of active S,S stereoisomer remaining ([1]; 30 days) | percentage of active S,S stereoisomer remaining ([1]; 60 days) | percentage of active S,S stereoisomer remaining ([1]; 90 days) | percentage of active S,S stereoisomer remaining ([1]; 120 days) | percentage of active S,S stereoisomer remaining ([1]; 180 days) | percentage of active S,S stereoisomer remaining ([1]; T = 0) | Moisture % K.F. [2] | percentage of the active S,S stereoisomer remaining ([3]; 30 days) | percentage of the active S,S stereoisomer remaining ([3]; 90 days) | percentage of the active S,S stereoisomer remaining ([3]; 180 days) | percentage of the active S,S stereoisomer remaining ([3]; 360 days) | percentage of the active S,S stereoisomer remaining ([3]; 720 days) | percentage of the active S,S stereoisomer remaining ([3]; T = 0) | stability test percentage value (active ingredient %), 30 days [4] | stability test percentage value (active ingredient %), 60 days [4] | stability test percentage value (active ingredient %), 90 days [4] | stability test percentage value (active ingredient %), 120 days [4] | stability test percentage value (active ingredient %), 180 days [4] | stability test percentage value (active ingredient %), 30 days [5] | stability test percentage value (active ingredient %), 90 days [5] | also measured
1 | C[S+](CCC(N)C(=O)[O-])C[C@H]1O[C@@H](n2cnc3c(N)ncnc32)[C@H](O)[C@@H]1O.C[S+](CCC(N)C(=O)[O-])C[C@H]1O[C@@H](n2cnc3c(N)ncnc32)[C@H](O)[C@@H]1O.O=S(=O)(O)O.[Ca+2].[Cl-].[Cl-] (stereo partly drawn) [SAMe•0.5H2SO4•0.5CaCl2] | 89.8% | 86.8% | 83.6% | 80.6% | 77.6% | 98.2% | 0.23% | 97.8% | 96.7% | 93.6% | 90.8% | 88.6% | 98.2% | 0.48% | 0.76% | 1.48% | 1.98% | 3.99% | 0.23% | 0.35% | stability test percentage value (active ingredient %), 180 days [5]: 0.57%; stability test percentage value (active ingredient %), 360 days [5]: 0.78%; stability test percentage value (active ingredient %), 720 days [5]: 0.99%
2 | C[S+](CCC(N)C(=O)[O-])C[C@H]1O[C@@H](n2cnc3c(N)ncnc32)[C@H](O)[C@@H]1O.O=S(=O)(O)O.O=S(=O)(O)O.[Ca+2].[Cl-].[Cl-] (stereo partly drawn) [SAMe•2.0H2SO4•1.0CaCl2] | 89.3% | 85.3% | 83.3% | 79.3% | 75.3% | 97.2% | 0.35% | 95.9% | 94.9% | 93.8% | 91.2% | 87.8% | 97.2% | 0.17% | 0.42% | 0.92% | 1.52% | 2.70% | 0.16% | 0.29% | stability test percentage value (active ingredient %), 180 days [5]: 0.35%; stability test percentage value (active ingredient %), 360 days [5]: 0.68%; stability test percentage value (active ingredient %), 720 days [5]: 0.82%
3 | C[S+](CCC(N)C(=O)[O-])C[C@H]1O[C@@H](n2cnc3c(N)ncnc32)[C@H](O)[C@@H]1O.Cl.Cl.[Cl-].[Cl-].[Mg+2] (stereo partly drawn) [SAMe•2.0HCl•1.0MgCl2] | 92.9% | 87.8% | 83.4% | 82.1% | 78.2% | 97.4% | 0.44% | 96.6% | 95.7% | 94.7% | 92.5% | 88.0% | 97.4% | 0.27% | 0.45% | 1.14% | 1.45% | 1.89% | 0.17% | 0.37% | stability test percentage value (active ingredient %), 180 days [5]: 0.58%; stability test percentage value (active ingredient %), 360 days [5]: 0.74%; stability test percentage value (active ingredient %), 720 days [5]: 0.98%
4 | C[S+](CCC(N)C(=O)[O-])C[C@H]1O[C@@H](n2cnc3c(N)ncnc32)[C@H](O)[C@@H]1O.C[S+](CCC(N)C(=O)[O-])C[C@H]1O[C@@H](n2cnc3c(N)ncnc32)[C@H](O)[C@@H]1O.Cl.O=S(=O)([O-])[O-].[Mg+2] (stereo partly drawn) [SAMe•0.5HCl•0.5MgSO4] | 92.8% | 87.8% | 84.6% | 89.6% | 72.6% | 98.9% | 0.82% | 97.8% | 95.8% | 94.3% | 91.6% | 88.2% | 98.9% | 0.48% | 0.78% | 1.54% | 1.98% | 2.78% | 0.31% | 0.46% | stability test percentage value (active ingredient %), 180 days [5]: 0.77%; stability test percentage value (active ingredient %), 360 days [5]: 0.94%; stability test percentage value (active ingredient %), 720 days [5]: 1.19%
5 | C[S+](CCC(N)C(=O)[O-])C[C@H]1O[C@@H](n2cnc3c(N)ncnc32)[C@H](O)[C@@H]1O.Cl.Cl.O=S(=O)([O-])[O-].[Mg+2] (stereo partly drawn) [SAMe•2.0HCl•1.0MgSO4] | 89.9% | 87.9% | 83.0% | 79.1% | 73.3% | 98.0% | 0.52% | 86.5% | 95.6% | 93.0% | 91.1% | 88.2% | 98.0% | 0.27% | 0.49% | 0.67% | 1.46% | 1.62% | 0.19% | 0.28% | stability test percentage value (active ingredient %), 180 days [5]: 0.41%; stability test percentage value (active ingredient %), 360 days [5]: 0.65%; stability test percentage value (active ingredient %), 720 days [5]: 0.87%
6 | C[S+](CCC(N)C(=O)[O-])C[C@H]1O[C@@H](n2cnc3c(N)ncnc32)[C@H](O)[C@@H]1O.O=S(=O)(O)O.O=S(=O)(O)O.O=S(=O)([O-])[O-].[Mg+2] (stereo partly drawn) [SAMe•2.0H2SO4•1.0Mg2SO4•0.4H2O] | 91.3% | 89.4% | 84.1% | 81.3% | 75.8% | 97.5% | 0.34% | 97.3% | 96.4% | 94.1% | 91.3% | 89.8% | 97.5% | 0.33% | 0.44% | 0.61% | 1.02% | 1.59% | 0.14% | 0.28% | stability test percentage value (active ingredient %), 180 days [5]: 0.45%; stability test percentage value (active ingredient %), 360 days [5]: 0.69%; stability test percentage value (active ingredient %), 720 days [5]: 0.92%
